Reference: EP0377642B1, “HERBICIDES FOR WEED CONTROL IN RICE” (E.I. DU PONT DE NEMOURS AND COMPANY, priority 1987, dated 1989)

Key:
Type in all cases: in vivo
[1] = test system: Sphenoclea zeylanica; assay: Field test, herbicidal efficacy in rice, Thailand, applied 36 days after seeding (Table 1); details: 100=complete control
From the text: (§1) Methyl 2-[[[[(4-methoxy-6-methyl-1,3,5-triazin-2-yl)amino]carbonyl]amino]sulfonyl]benzoate (Compound 1) and mixtures thereof with other compounds were applied as a spray (using a hand sprayer) to rice (either transplanted or direct seeded) in several rice growing areas in Southeast Asia and in the U.S. Tables 1-28 contain the results of these tests and clearly exemplify the utility of this invention. The details of each application are included in the appropriate table. [drawing 2]

[2] = test system: Cyperus species; assay: as above; details: 100=complete control
From the text: as §1

[3] = test system: rice; assay: Greenhouse test of Compound 1 and Compound 2, crop tolerance (Table 26); details: treated 12 days after transplanting, rated 24 days after treatment; for % CONTROL OR INJURY LEMONT: indica rice variety Lemont; for % CONTROL OR INJURY M101: japonica rice variety M101
From the text: as §1

[4] = test system: rice; assay: Herbicidal efficacy in relation to application timing in Indonesia (Table 5)
From the text: as §1

[5] = test system: CI; assay: as above
From the text: as §1

## COC(=O)c1ccccc1S(=O)(=O)NC(=O)Nc1nc(C)nc(OC)n1 [Compound 1, Methyl 2-[[[[(4-methoxy-6-methyl-1,3,5-triazin-2-yl)amino]carbonyl]amino]sulfonyl]benzoate]
[1]; Trial 1, 2 GAI/HA
  Herbicidal efficacy SZ 2WAA: 100
  Herbicidal efficacy SZ 4WAA: 100
  Herbicidal efficacy SZ 6WAA: 100
[1]; Trial 1, 3 GAI/HA
  Herbicidal efficacy SZ 2WAA: 99
  Herbicidal efficacy SZ 4WAA: 100
  Herbicidal efficacy SZ 6WAA: 100
[1]; Trial 1, 4 GAI/HA
  Herbicidal efficacy SZ 2WAA: 100
  Herbicidal efficacy SZ 4WAA: 100
  Herbicidal efficacy SZ 6WAA: 100
[1]; Trial 1, 6 GAI/HA
  Herbicidal efficacy SZ 2WAA: 100
  Herbicidal efficacy SZ 4WAA: 100
  Herbicidal efficacy SZ 6WAA: 100
[1]; Trial 2, 2 GAI/HA
  Herbicidal efficacy SZ 2WAA: 97
  Herbicidal efficacy SZ 4WAA: 99
  Herbicidal efficacy SZ 6WAA: 99
[1]; Trial 2, 3 GAI/HA
  Herbicidal efficacy SZ 2WAA: 100
  Herbicidal efficacy SZ 4WAA: 100
  Herbicidal efficacy SZ 6WAA: 100
[1]; Trial 2, 4 GAI/HA
  Herbicidal efficacy SZ 2WAA: 99
  Herbicidal efficacy SZ 4WAA: 99
  Herbicidal efficacy SZ 6WAA: 100
[1]; Trial 2, 6 GAI/HA
  Herbicidal efficacy SZ 2WAA: 100
  Herbicidal efficacy SZ 4WAA: 100
  Herbicidal efficacy SZ 6WAA: 100
[2]; Trial 1, 2 GAI/HA
  Herbicidal efficacy CY 2WAA: 33
[2]; Trial 1, 3 GAI/HA
  Herbicidal efficacy CY 2WAA: 67
[2]; Trial 1, 4 GAI/HA
  Herbicidal efficacy CY 2WAA: 67
[2]; Trial 1, 6 GAI/HA
  Herbicidal efficacy CY 2WAA: 67
[2]; Trial 2, 2 GAI/HA
  Herbicidal efficacy CY 2WAA: 0
[2]; Trial 2, 3 GAI/HA
  Herbicidal efficacy CY 2WAA: 67
[2]; Trial 2, 4 GAI/HA
  Herbicidal efficacy CY 2WAA: 33
[2]; Trial 2, 6 GAI/HA
  Herbicidal efficacy CY 2WAA: 67
[3]; rate 1 g ai/ha
  % CONTROL OR INJURY LEMONT: 10%
  % CONTROL OR INJURY M101: 0%
[3]; rate 2 g ai/ha
  % CONTROL OR INJURY LEMONT: 20%
  % CONTROL OR INJURY M101: 10%
[3]; rate 4 g ai/ha
  % CONTROL OR INJURY LEMONT: 40%
  % CONTROL OR INJURY M101: 10%
[3]; rate 8 g ai/ha
  % CONTROL OR INJURY LEMONT: 50%
  % CONTROL OR INJURY M101: 35%
[4]; 3 WAT, 2 GAI/HA, evaluation 1
  % CONTROL RICE: 0%
[4]; 3 WAT, 2 GAI/HA, evaluation 2
  % CONTROL RICE: 0%
[4]; 3 WAT, 2 GAI/HA, evaluation 3
  % CONTROL RICE: 0%
[4]; 3 WAT, 3 GAI/HA, evaluation 1
  % CONTROL RICE: 0%
[4]; 3 WAT, 3 GAI/HA, evaluation 2
  % CONTROL RICE: 0%
[4]; 3 WAT, 3 GAI/HA, evaluation 3
  % CONTROL RICE: 0%
[4]; 3 WAT, 4 GAI/HA, evaluation 1
  % CONTROL RICE: 0%
[4]; 3 WAT, 4 GAI/HA, evaluation 2
  % CONTROL RICE: 0%
[4]; 3 WAT, 4 GAI/HA, evaluation 3
  % CONTROL RICE: 0%
[4]; 3 WAT, 6 GAI/HA, evaluation 1
  % CONTROL RICE: 0%
[4]; 3 WAT, 6 GAI/HA, evaluation 2
  % CONTROL RICE: 0%
[4]; 3 WAT, 6 GAI/HA, evaluation 3
  % CONTROL RICE: 0%
[4]; 3 WAT, 8 GAI/HA, evaluation 1
  % CONTROL RICE: 0%
[4]; 3 WAT, 8 GAI/HA, evaluation 2
  % CONTROL RICE: 0%
[4]; 3 WAT, 8 GAI/HA, evaluation 3
  % CONTROL RICE: 0%
[4]; 4 WAT, 2 GAI/HA, evaluation 1
  % CONTROL RICE: 0%
[4]; 4 WAT, 2 GAI/HA, evaluation 2
  % CONTROL RICE: 0%
[4]; 4 WAT, 2 GAI/HA, evaluation 3
  % CONTROL RICE: 0%
[4]; 4 WAT, 3 GAI/HA, evaluation 1
  % CONTROL RICE: 0%
[4]; 4 WAT, 3 GAI/HA, evaluation 2
  % CONTROL RICE: 10%
[4]; 4 WAT, 3 GAI/HA, evaluation 3
  % CONTROL RICE: 0%
[4]; 4 WAT, 4 GAI/HA, evaluation 1
  % CONTROL RICE: 20%
[4]; 4 WAT, 4 GAI/HA, evaluation 2
  % CONTROL RICE: 20%
[4]; 4 WAT, 4 GAI/HA, evaluation 3
  % CONTROL RICE: 0%
[4]; 4 WAT, 6 GAI/HA, evaluation 1
  % CONTROL RICE: 20%
[4]; 4 WAT, 6 GAI/HA, evaluation 2
  % CONTROL RICE: 20%
[4]; 4 WAT, 6 GAI/HA, evaluation 3
  % CONTROL RICE: 0%
[4]; 4 WAT, 8 GAI/HA, evaluation 1
  % CONTROL RICE: 20%
[4]; 4 WAT, 8 GAI/HA, evaluation 2
  % CONTROL RICE: 20%
[4]; 4 WAT, 8 GAI/HA, evaluation 3
  % CONTROL RICE: 0%
[4]; 5 WAT, 2 GAI/HA, evaluation 1
  % CONTROL RICE: 10%
[4]; 5 WAT, 2 GAI/HA, evaluation 2
  % CONTROL RICE: 0%
[4]; 5 WAT, 2 GAI/HA, evaluation 3
  % CONTROL RICE: 0%
[4]; 5 WAT, 3 GAI/HA, evaluation 1
  % CONTROL RICE: 10%
[4]; 5 WAT, 3 GAI/HA, evaluation 2
  % CONTROL RICE: 0%
[4]; 5 WAT, 3 GAI/HA, evaluation 3
  % CONTROL RICE: 0%
[4]; 5 WAT, 4 GAI/HA, evaluation 1
  % CONTROL RICE: 30%
[4]; 5 WAT, 4 GAI/HA, evaluation 2
  % CONTROL RICE: 0%
[4]; 5 WAT, 4 GAI/HA, evaluation 3
  % CONTROL RICE: 0%
[4]; 5 WAT, 6 GAI/HA, evaluation 1
  % CONTROL RICE: 0%
[4]; 5 WAT, 6 GAI/HA, evaluation 2
  % CONTROL RICE: 0%
[4]; 5 WAT, 6 GAI/HA, evaluation 3
  % CONTROL RICE: 0%
[4]; 5 WAT, 8 GAI/HA, evaluation 1
  % CONTROL RICE: 30%
[4]; 5 WAT, 8 GAI/HA, evaluation 2
  % CONTROL RICE: 10%
[4]; 5 WAT, 8 GAI/HA, evaluation 3
  % CONTROL RICE: 0%
[5]; 3 WAT, 2 GAI/HA, evaluation 1
  % CONTROL CI: 0%
[5]; 3 WAT, 2 GAI/HA, evaluation 2
  % CONTROL CI: 0%
[5]; 3 WAT, 2 GAI/HA, evaluation 3
  % CONTROL CI: 0%
[5]; 3 WAT, 3 GAI/HA, evaluation 1
  % CONTROL CI: 20%
[5]; 3 WAT, 3 GAI/HA, evaluation 2
  % CONTROL CI: 0%
[5]; 3 WAT, 3 GAI/HA, evaluation 3
  % CONTROL CI: 0%
[5]; 3 WAT, 4 GAI/HA, evaluation 1
  % CONTROL CI: 20%
[5]; 3 WAT, 4 GAI/HA, evaluation 2
  % CONTROL CI: 0%
[5]; 3 WAT, 4 GAI/HA, evaluation 3
  % CONTROL CI: 0%
[5]; 3 WAT, 6 GAI/HA, evaluation 1
  % CONTROL CI: 20%
[5]; 3 WAT, 6 GAI/HA, evaluation 2
  % CONTROL CI: 0%
[5]; 3 WAT, 6 GAI/HA, evaluation 3
  % CONTROL CI: 0%
[5]; 3 WAT, 8 GAI/HA, evaluation 1
  % CONTROL CI: 20%
[5]; 3 WAT, 8 GAI/HA, evaluation 2
  % CONTROL CI: 0%
[5]; 3 WAT, 8 GAI/HA, evaluation 3
  % CONTROL CI: 0%
[5]; 4 WAT, 2 GAI/HA, evaluation 1
  % CONTROL CI: 0%
[5]; 4 WAT, 2 GAI/HA, evaluation 2
  % CONTROL CI: 0%
[5]; 4 WAT, 2 GAI/HA, evaluation 3
  % CONTROL CI: 0%
[5]; 4 WAT, 3 GAI/HA, evaluation 1
  % CONTROL CI: 0%
[5]; 4 WAT, 3 GAI/HA, evaluation 2
  % CONTROL CI: 0%
[5]; 4 WAT, 3 GAI/HA, evaluation 3
  % CONTROL CI: 0%
[5]; 4 WAT, 4 GAI/HA, evaluation 1
  % CONTROL CI: 20%
[5]; 4 WAT, 4 GAI/HA, evaluation 2
  % CONTROL CI: 20%
[5]; 4 WAT, 4 GAI/HA, evaluation 3
  % CONTROL CI: 0%
[5]; 4 WAT, 6 GAI/HA, evaluation 1
  % CONTROL CI: 20%
[5]; 4 WAT, 6 GAI/HA, evaluation 2
  % CONTROL CI: 20%
[5]; 4 WAT, 6 GAI/HA, evaluation 3
  % CONTROL CI: 0%
[5]; 4 WAT, 8 GAI/HA, evaluation 1
  % CONTROL CI: 20%
[5]; 4 WAT, 8 GAI/HA, evaluation 2
  % CONTROL CI: 20%
[5]; 4 WAT, 8 GAI/HA, evaluation 3
  % CONTROL CI: 0%
[5]; 5 WAT, 2 GAI/HA, evaluation 1
  % CONTROL CI: 0%
[5]; 5 WAT, 2 GAI/HA, evaluation 2
  % CONTROL CI: 0%
[5]; 5 WAT, 2 GAI/HA, evaluation 3
  % CONTROL CI: 0%
[5]; 5 WAT, 3 GAI/HA, evaluation 1
  % CONTROL CI: 50%
[5]; 5 WAT, 3 GAI/HA, evaluation 2
  % CONTROL CI: 20%
[5]; 5 WAT, 3 GAI/HA, evaluation 3
  % CONTROL CI: 0%
[5]; 5 WAT, 4 GAI/HA, evaluation 1
  % CONTROL CI: 60%
[5]; 5 WAT, 4 GAI/HA, evaluation 2
  % CONTROL CI: 30%
[5]; 5 WAT, 4 GAI/HA, evaluation 3
  % CONTROL CI: 0%
[5]; 5 WAT, 6 GAI/HA, evaluation 1
  % CONTROL CI: 60%
[5]; 5 WAT, 6 GAI/HA, evaluation 2
  % CONTROL CI: 40%
[5]; 5 WAT, 6 GAI/HA, evaluation 3
  % CONTROL CI: 0%
[5]; 5 WAT, 8 GAI/HA, evaluation 1
  % CONTROL CI: 60%
[5]; 5 WAT, 8 GAI/HA, evaluation 2
  % CONTROL CI: 60%
[5]; 5 WAT, 8 GAI/HA, evaluation 3
  % CONTROL CI: 30%
